Some test systems named below: SK-MEL-5 melanoma; HL-60(TB) leukemia; OVCAR-5 ovarian; UACC-62 melanoma; SNB-19 CNS; SNB-75 CNS; OVCAR-4 ovarian; NCI-H522 lung; NCI-H23 lung; BT-549 breast.
Common to all, as to assay: growth of human tumour cells (NCI), 48 h

Where “and” joins values, the source holds several entries; their conditions need not be identical. Identical values can stand only once.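 Interpolation was linear, between the two tested concentrations surrounding the appropriate level; five concentrations were tested over 48 hours in 96-well plates. At the GI50, growth is halved. TGI: total growth inhibition.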 Some results are limits rather than exact numbers.

For `CC(C)(C)C[C@H]1N[C@@H](C(=O)NC2CCC(O)CC2)[C@H](c2cccc(Cl)c2F)[C@@]12C(=O)Nc1cc(Cl)ccc12` (stereo partly drawn), the GI50 in the test on SK-MEL-5 melanoma is 1.41 µM; with HL-60(TB) leukemia, 2.66 µM; in the test on OVCAR-5 ovarian it was 3.88 µM; with UACC-62 melanoma, 0.235 µM; in the test with SNB-19 CNS, 5.93 µM; with SNB-75 CNS, 3.78 µM. Further, the GI50 in the test on OVCAR-4 ovarian was 5.6 µM; in the test with NCI-H522 lung it was 7.89 µM; in the test on NCI-H23 lung, 11.1 µM; in the test with BT-549 breast it was 3.8 µM. Also, the TGI in the test on SK-MEL-5 melanoma amounted to 3.19 µM; in the test on HL-60(TB) leukemia it was 7.06 µM; in the test with OVCAR-5 ovarian, 15.2 µM; in the test on UACC-62 melanoma it was 2.46 µM; in the test on SNB-19 CNS, 21.3 µM; in the test with SNB-75 CNS, 17.9 µM. For the same compound, the TGI in the test with OVCAR-4 ovarian stood at 18.7 µM; in the test on NCI-H522 lung, 22.9 µM; in the test with NCI-H23 lung, 29.2 µM; in the test with BT-549 breast it was 14.1 µM.
Regarding `CCCCCCCC(=O)OCC/C=C/C1OC1C1OC(=O)/C=C\C=C\C(=O)N(C(C)=O)C(=O)/C=C(/C)CCC2OC2C1OC(=O)NC(C)=O` (stereo not drawn), the GI50 is 7.03 µM in the test with SK-MEL-5 melanoma; 8.18 µM in the test with HL-60(TB) leukemia; 4.88 µM with OVCAR-5 ovarian; 6.27 µM in the test with UACC-62 melanoma; > 25 µM in the test with SNB-19 CNS; 4.79 µM in the test with SNB-75 CNS. The GI50 was 7.37 µM with OVCAR-4 ovarian, 3.78 µM in the test on NCI-H522 lung, 5.07 µM in the test on NCI-H23 lung and 6.43 µM with BT-549 breast. For the same compound, the TGI in the test with SK-MEL-5 melanoma is > 25 µM; in the test with HL-60(TB) leukemia, > 25 µM; in the test on OVCAR-5 ovarian it was 11.5 µM; in the test on UACC-62 melanoma, > 25 µM; in the test on SNB-19 CNS, > 25 µM; in the test with SNB-75 CNS it was 17.9 µM. For the same compound, the TGI in the test with OVCAR-4 ovarian is > 25 µM; in the test on NCI-H522 lung it was 8.16 µM; with NCI-H23 lung it was 12.8 µM; with BT-549 breast, > 25 µM.
In the case of `[N-]=[N+]=CC(=O)CCC(N)C(=O)O` (stereo not drawn), the GI50 in the test on SK-MEL-5 melanoma was 1.48 µM; in the test on HL-60(TB) leukemia it was 2.3 µM; in the test with UACC-62 melanoma, 3.82 µM; with SNB-19 CNS, 10.1 µM; in the test with SNB-75 CNS, 39.4 µM; in the test on OVCAR-4 ovarian it was 4.2 µM. Further, the GI50 in the test with NCI-H522 lung is 0.963 µM; in the test with NCI-H23 lung it was 6.94 µM. For the same compound, the TGI in the test on SK-MEL-5 melanoma is 105 µM; in the test on HL-60(TB) leukemia, 208 µM; in the test with OVCAR-5 ovarian, > 186 µM; in the test on UACC-62 melanoma, > 147 µM; with SNB-19 CNS it was > 250 µM; with SNB-75 CNS, 191 µM. Besides, the TGI is > 206 µM in the test on OVCAR-4 ovarian, > 149 µM in the test with NCI-H522 lung, > 215 µM in the test with NCI-H23 lung and > 250 µM with BT-549 breast.
Consider `O=c1[nH]c(C2CCCN2)nc2c1oc1ccc(Cl)cc12` (stereo not drawn), for which the GI50 in the test on SK-MEL-5 melanoma is 20.3 µM; in the test with HL-60(TB) leukemia, > 100 µM; in the test with OVCAR-5 ovarian, > 100 µM; in the test with UACC-62 melanoma it was 98.8 µM; in the test on SNB-19 CNS, 68.1 µM; in the test with SNB-75 CNS, 17.9 µM. For the same compound, the GI50 with OVCAR-4 ovarian is > 39.1 µM; in the test on NCI-H522 lung it was 26.9 µM; with NCI-H23 lung it was > 100 µM; in the test on BT-549 breast it was 31.5 µM. The TGI is > 85 µM in the test with SK-MEL-5 melanoma; > 100 µM in the test on HL-60(TB) leukemia; > 100 µM in the test with OVCAR-5 ovarian; > 100 µM with UACC-62 melanoma; > 100 µM with SNB-19 CNS; > 100 µM in the test with SNB-75 CNS. Besides, the TGI in the test with OVCAR-4 ovarian, with NCI-H522 lung, with NCI-H23 lung and in the test on BT-549 breast was > 100 µM in each case.
`Cn1c(COC(=O)NCCn2ccnc2)nc2c(N3CCOCC3)nc(-c3ccccc3)nc21`: the GI50 in the test on SK-MEL-5 melanoma is 1.46 µM; in the test with HL-60(TB) leukemia it was 0.615 µM; in the test with OVCAR-5 ovarian, 1.39 µM; in the test with UACC-62 melanoma it was 1.23 µM; with SNB-19 CNS it was 1.38 µM; in the test with SNB-75 CNS it was 0.759 µM. Moreover, the GI50 in the test with OVCAR-4 ovarian was 0.692 µM; in the test on NCI-H522 lung, 0.352 µM; in the test with NCI-H23 lung, 1.52 µM; with BT-549 breast, 0.737 µM. In addition, the TGI with SK-MEL-5 melanoma is 2.81 µM; in the test with HL-60(TB) leukemia, 2.48 µM; in the test with OVCAR-5 ovarian, 3.01 µM; in the test on UACC-62 melanoma, 2.5 µM; with SNB-19 CNS it was 2.69 µM; in the test on SNB-75 CNS it was 2.15 µM. Also, the TGI was 1.97 µM with OVCAR-4 ovarian, 1.56 µM in the test on NCI-H522 lung, 3.08 µM in the test with NCI-H23 lung and 2.04 µM in the test with BT-549 breast.
Turning to `C[C@@H]1C[C@@H]([C@H](O)CC2CC(=O)NC(=O)C2)C(=O)[C@@H](C)C1`, the GI50 in the test with SK-MEL-5 melanoma was 0.199 µM; in the test with HL-60(TB) leukemia, 0.202 µM; in the test on OVCAR-5 ovarian it was 0.317 µM; in the test with UACC-62 melanoma it was 0.321 µM; in the test on SNB-19 CNS it was 0.282 µM; in the test on SNB-75 CNS, 0.333 µM. In addition, the GI50 is 0.299 µM with OVCAR-4 ovarian, 0.126 µM with NCI-H522 lung, 0.274 µM with NCI-H23 lung and 0.927 µM in the test with BT-549 breast. Also, the TGI in the test on SK-MEL-5 melanoma is 2.18 µM and 0.494 µM; with HL-60(TB) leukemia, 2.14 µM and 0.43 µM; in the test with OVCAR-5 ovarian it was 14.6 µM and 4.02 µM; in the test on UACC-62 melanoma it was 8.14 µM and 10.5 µM; in the test on SNB-19 CNS, 15.8 µM and > 94.6 µM; in the test with SNB-75 CNS it was 4.93 µM and 1.43 µM. In addition, the TGI is 4.97 µM and 1.2 µM with OVCAR-4 ovarian; 0.643 µM and 0.549 µM in the test with NCI-H522 lung; 4.78 µM and 0.941 µM in the test with NCI-H23 lung; 9.01 µM with BT-549 breast.
Regarding `CCCC(=O)O[C@]1(C)CC[C@@H]2[C@H]3[C@@H]1[C@@H]1C[C@@](C)(O)[C@H](OC)CC[C@](C)(OC(=O)[C@@H]2C)[C@H]3O1`, the GI50 with SK-MEL-5 melanoma was 34.9 µM; with HL-60(TB) leukemia, 21.2 µM; in the test on OVCAR-5 ovarian, 58.9 µM; in the test on SNB-19 CNS it was 32.1 µM; in the test with SNB-75 CNS it was 16.3 µM; with OVCAR-4 ovarian, 22.1 µM. The GI50 is 32 µM in the test with NCI-H522 lung, 96.1 µM in the test on NCI-H23 lung and 40.3 µM in the test with BT-549 breast. For the same compound, the TGI with SK-MEL-5 melanoma was > 100 µM; in the test with HL-60(TB) leukemia, 45.1 µM; in the test with OVCAR-5 ovarian, > 100 µM; with SNB-19 CNS, > 100 µM; in the test on SNB-75 CNS, 39.2 µM; with OVCAR-4 ovarian, 50 µM. The TGI with NCI-H522 lung, in the test with NCI-H23 lung and with BT-549 breast was > 100 µM throughout.
In the case of `C/C(=N/NC(=S)Nc1ccccc1)c1nc2ccc(Cl)cc2[nH]1`, the GI50 in the test with SK-MEL-5 melanoma is 0.0989 µM; with HL-60(TB) leukemia, 0.101 µM; with UACC-62 melanoma, 0.126 µM; in the test on SNB-19 CNS, 0.25 µM; in the test on SNB-75 CNS, 0.328 µM; in the test on OVCAR-4 ovarian, 0.0466 µM. Moreover, the GI50 is 0.194 µM with NCI-H522 lung, 0.406 µM with NCI-H23 lung and 0.135 µM in the test on BT-549 breast. The TGI in the test with SK-MEL-5 melanoma stood at 0.457 µM; in the test with HL-60(TB) leukemia, 0.503 µM; with UACC-62 melanoma, 0.425 µM; in the test on SNB-19 CNS it was 1.71 µM; in the test on SNB-75 CNS, 1.04 µM; in the test with OVCAR-4 ovarian it was 2.42 µM. Also, the TGI was found to be 0.821 µM in the test on NCI-H522 lung, 1.52 µM in the test with NCI-H23 lung and 0.924 µM in the test on BT-549 breast.
In the case of `O=C1c2cccc3cccc(c23)C(=O)N1CCCCCN1CCN(CCN=c2cc3n(-c4ccc(Cl)cc4)c4ccccc4nc-3cc2Nc2ccc(Cl)cc2)CC1`, the GI50 was 7.46 µM in the test on SK-MEL-5 melanoma; 6.91 µM in the test on HL-60(TB) leukemia; 10.2 µM in the test on OVCAR-5 ovarian; 7.5 µM with UACC-62 melanoma; 23 µM in the test with SNB-19 CNS; 14.5 µM in the test with SNB-75 CNS. For the same compound, the GI50 was 6.22 µM in the test on OVCAR-4 ovarian, 8.52 µM in the test with NCI-H23 lung and 22.2 µM in the test on BT-549 breast. For the same compound, the TGI is 18.1 µM in the test with SK-MEL-5 melanoma; 21.3 µM in the test on HL-60(TB) leukemia; 20.1 µM with OVCAR-5 ovarian; 20.5 µM with UACC-62 melanoma; > 50 µM with SNB-19 CNS; 39.6 µM with SNB-75 CNS. The values for the TGI in the test with OVCAR-4 ovarian, in the test with NCI-H23 lung and in the test on BT-549 breast were 17.3 µM, 22.3 µM and > 50 µM, respectively.
In the case of `COc1ccc(-n2c(=S)sc3c(Cl)nc(C)nc32)c(OC)c1`, the GI50 in the test on HL-60(TB) leukemia is 1.43 µM; in the test with OVCAR-5 ovarian it was 6.15 µM; in the test with UACC-62 melanoma, 2.06 µM; with SNB-19 CNS, 2.4 µM; in the test on SNB-75 CNS, 1.97 µM; in the test with OVCAR-4 ovarian, 4.73 µM. In addition, the figures for the GI50 with NCI-H522 lung, in the test with NCI-H23 lung and in the test with BT-549 breast were 1.84 µM, 2.44 µM and 1.99 µM, respectively. For the same compound, the TGI in the test on HL-60(TB) leukemia was found to be 5.83 µM; in the test with OVCAR-5 ovarian it was 20.9 µM; with UACC-62 melanoma, 4.69 µM; with SNB-19 CNS it was 5.42 µM; with SNB-75 CNS, 4.26 µM; with OVCAR-4 ovarian, 15.6 µM. Besides, the values for the TGI with NCI-H522 lung, in the test with NCI-H23 lung and with BT-549 breast were 3.89 µM, 5.87 µM and 4.28 µM, respectively.
On to `O=C1/C(=C/c2ccccc2)Oc2cc(O)ccc21`, for which the TGI in the test with SK-MEL-5 melanoma, with HL-60(TB) leukemia, in the test on UACC-62 melanoma, in the test on SNB-19 CNS, with SNB-75 CNS and with OVCAR-4 ovarian was > 100 µM each time. Moreover, the TGI in the test with NCI-H522 lung, in the test on NCI-H23 lung and in the test on BT-549 breast was > 100 µM throughout.
As to `O=C(Nc1sc2c(c1C(=O)O)CCCC2)c1ccco1`, the GI50 with SK-MEL-5 melanoma was > 50 µM; in the test with HL-60(TB) leukemia, > 50 µM; in the test with UACC-62 melanoma, > 50 µM; in the test with SNB-19 CNS it was 29.5 µM; with SNB-75 CNS, > 50 µM; with NCI-H522 lung, > 50 µM. The GI50 in the test with BT-549 breast was > 50 µM. Further, the TGI with SK-MEL-5 melanoma, with HL-60(TB) leukemia, in the test with UACC-62 melanoma, with SNB-19 CNS, with SNB-75 CNS and in the test with NCI-H522 lung was > 50 µM each time. Further, the TGI in the test on BT-549 breast was > 50 µM.
